According to patent US20230150974A1 (Foghorn Therapeutics Inc., priority 2020, published 2023):
Read-outs that look alike come from different tables or passages of the source.

Key:
HiBiT-BRM = target: T1, HiBiT-BRM (Homo sapiens, UniProt P51531); test: HiBiT-BRM cell-based degradation assay (Nano-Glo HiBiT Lytic Detection)
T1 construct: expressed in transfected cells
Summary of the method: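 HeLa cells stably expressing HiBiT-tagged BRM were treated for 24 h, then lysed with LgBiT-containing Nano-Glo reagent and luminescence read. % degradation scaled between DMSO (high control) and 2 μM reference BRM/BRG1 degrader (low control).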

HiBit-BRG1 = target: T2, HiBit-BRG1 (Homo sapiens, UniProt P51532); test: HiBit-BRG1 cell-based degradation assay (Nano-Glo HiBiT Lytic Detection)
T2 construct: expressed in transfected cells
Summary of the method: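 HeLa cells stably expressing HiBiT-BRG1 plus LgBit, 5000/well, treated 24 h, then lysed with Nano-Glo HiBiT lytic reagent and luminescence read. % degradation normalised between DMSO (high control) and 2 μM reference BRM/BRG1 degrader (low control).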

[1] = HeLa cells expressing HiBiT-BRM, 24 h
[2] = HeLa cells expressing HiBiT-BRM, 24 h; read-out: BRM HiBit Degradation IC50
[3] = HeLa cells expressing HiBit-BRG1 and LgBit, 24 h; read-out: BRG1 HiBit Degradation IC50
[4] = HeLa cells expressing HiBit-BRG1 and LgBit, 24 h; read-out: BRG1 HiBit Degradation Maximum (%)

T1 sequence (P51531 whole entry): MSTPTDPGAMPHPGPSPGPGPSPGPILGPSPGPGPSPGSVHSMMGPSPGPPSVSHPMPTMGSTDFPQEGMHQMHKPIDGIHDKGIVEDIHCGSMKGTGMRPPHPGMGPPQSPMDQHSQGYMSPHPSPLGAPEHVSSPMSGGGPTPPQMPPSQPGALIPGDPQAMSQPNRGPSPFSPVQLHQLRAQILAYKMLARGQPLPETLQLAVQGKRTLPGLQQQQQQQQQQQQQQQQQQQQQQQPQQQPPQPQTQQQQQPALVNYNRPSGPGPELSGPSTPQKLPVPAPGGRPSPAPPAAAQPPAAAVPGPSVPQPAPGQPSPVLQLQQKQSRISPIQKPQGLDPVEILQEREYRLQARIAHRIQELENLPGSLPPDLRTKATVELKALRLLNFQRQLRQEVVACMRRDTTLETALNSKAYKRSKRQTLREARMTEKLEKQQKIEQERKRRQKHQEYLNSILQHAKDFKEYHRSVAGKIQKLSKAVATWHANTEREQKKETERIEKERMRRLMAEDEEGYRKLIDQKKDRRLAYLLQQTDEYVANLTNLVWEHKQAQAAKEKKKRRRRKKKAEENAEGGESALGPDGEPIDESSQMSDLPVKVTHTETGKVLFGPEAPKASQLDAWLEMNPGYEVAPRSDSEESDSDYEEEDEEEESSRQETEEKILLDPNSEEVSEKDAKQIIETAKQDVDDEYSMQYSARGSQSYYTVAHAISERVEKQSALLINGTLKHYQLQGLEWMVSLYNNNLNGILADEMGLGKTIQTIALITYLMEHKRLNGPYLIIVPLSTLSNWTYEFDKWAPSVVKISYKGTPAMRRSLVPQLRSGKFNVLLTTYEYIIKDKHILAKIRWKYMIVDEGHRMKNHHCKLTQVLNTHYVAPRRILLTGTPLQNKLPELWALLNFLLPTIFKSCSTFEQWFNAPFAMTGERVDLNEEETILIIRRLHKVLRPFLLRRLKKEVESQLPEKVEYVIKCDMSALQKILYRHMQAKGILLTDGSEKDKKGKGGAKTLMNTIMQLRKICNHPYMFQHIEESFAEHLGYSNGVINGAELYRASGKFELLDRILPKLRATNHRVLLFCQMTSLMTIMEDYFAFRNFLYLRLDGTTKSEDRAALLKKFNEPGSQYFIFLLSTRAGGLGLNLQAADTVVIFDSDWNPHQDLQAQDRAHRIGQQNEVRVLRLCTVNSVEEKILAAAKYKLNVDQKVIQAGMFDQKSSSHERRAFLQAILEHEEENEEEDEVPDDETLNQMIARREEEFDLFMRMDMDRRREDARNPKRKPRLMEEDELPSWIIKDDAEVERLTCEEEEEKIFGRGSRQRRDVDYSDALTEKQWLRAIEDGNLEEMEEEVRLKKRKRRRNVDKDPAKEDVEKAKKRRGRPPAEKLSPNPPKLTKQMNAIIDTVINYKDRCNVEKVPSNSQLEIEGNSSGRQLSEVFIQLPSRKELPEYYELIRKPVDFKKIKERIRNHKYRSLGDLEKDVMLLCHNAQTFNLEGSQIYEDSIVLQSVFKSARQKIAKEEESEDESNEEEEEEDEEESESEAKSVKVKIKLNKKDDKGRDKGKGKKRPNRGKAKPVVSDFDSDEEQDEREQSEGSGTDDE
T2 sequence (P51532 whole entry): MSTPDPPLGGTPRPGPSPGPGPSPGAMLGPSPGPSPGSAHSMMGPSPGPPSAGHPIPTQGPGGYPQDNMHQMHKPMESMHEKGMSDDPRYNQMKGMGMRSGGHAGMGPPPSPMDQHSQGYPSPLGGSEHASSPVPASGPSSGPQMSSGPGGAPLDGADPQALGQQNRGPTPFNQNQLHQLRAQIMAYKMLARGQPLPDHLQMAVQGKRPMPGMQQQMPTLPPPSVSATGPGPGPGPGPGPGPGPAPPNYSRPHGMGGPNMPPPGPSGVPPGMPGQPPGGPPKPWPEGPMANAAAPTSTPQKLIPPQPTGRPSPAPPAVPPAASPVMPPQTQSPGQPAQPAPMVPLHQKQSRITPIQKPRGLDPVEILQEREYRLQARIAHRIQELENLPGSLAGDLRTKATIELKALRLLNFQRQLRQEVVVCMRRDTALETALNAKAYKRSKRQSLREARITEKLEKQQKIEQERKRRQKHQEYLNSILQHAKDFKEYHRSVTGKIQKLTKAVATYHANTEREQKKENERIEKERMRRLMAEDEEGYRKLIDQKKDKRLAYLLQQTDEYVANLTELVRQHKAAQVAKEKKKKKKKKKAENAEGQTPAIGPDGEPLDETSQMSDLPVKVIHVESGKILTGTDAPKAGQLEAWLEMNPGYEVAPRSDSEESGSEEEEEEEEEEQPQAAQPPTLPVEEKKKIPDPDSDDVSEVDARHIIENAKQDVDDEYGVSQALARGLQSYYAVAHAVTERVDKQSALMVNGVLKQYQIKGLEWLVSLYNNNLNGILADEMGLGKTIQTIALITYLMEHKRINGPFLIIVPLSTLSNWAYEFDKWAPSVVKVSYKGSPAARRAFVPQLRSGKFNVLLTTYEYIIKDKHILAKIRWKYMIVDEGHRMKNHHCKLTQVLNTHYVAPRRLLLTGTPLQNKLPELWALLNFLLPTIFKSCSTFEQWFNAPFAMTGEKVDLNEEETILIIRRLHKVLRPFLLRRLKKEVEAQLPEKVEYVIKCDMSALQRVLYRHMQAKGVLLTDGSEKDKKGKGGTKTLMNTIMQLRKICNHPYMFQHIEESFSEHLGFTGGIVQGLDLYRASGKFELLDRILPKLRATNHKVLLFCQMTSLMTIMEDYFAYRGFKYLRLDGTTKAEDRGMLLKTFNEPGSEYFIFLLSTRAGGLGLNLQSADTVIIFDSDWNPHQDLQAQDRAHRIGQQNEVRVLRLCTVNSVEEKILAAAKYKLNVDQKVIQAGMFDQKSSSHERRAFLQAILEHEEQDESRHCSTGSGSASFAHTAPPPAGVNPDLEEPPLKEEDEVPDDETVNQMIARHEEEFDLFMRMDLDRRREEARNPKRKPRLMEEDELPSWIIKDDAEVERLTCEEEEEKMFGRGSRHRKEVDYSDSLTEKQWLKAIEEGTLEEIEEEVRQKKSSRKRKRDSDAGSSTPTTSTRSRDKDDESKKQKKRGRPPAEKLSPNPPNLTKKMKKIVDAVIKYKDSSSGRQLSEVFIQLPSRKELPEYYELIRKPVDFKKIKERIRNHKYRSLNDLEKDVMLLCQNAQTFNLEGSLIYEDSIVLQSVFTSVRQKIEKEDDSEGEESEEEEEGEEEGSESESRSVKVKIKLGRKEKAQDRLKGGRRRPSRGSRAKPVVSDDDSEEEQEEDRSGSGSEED

Compound	DC50 (HiBiT-BRM; [2])	DC50 (HiBit-BRG1; [3])	Dmax (HiBit-BRG1; [4])	BRM HiBit Degradation Maximum (%) (HiBiT-BRM; [1])	DC50 (HiBiT-BRM; read-out: BRM HiBit Degradation IC50; HeLa cells expressing HiBiT-BRM, 24 h)	DC50 (HiBit-BRG1; read-out: BRG1 HiBit Degradation IC50; HeLa cells expressing HiBit-BRG1 and LgBit, 24 h)
Cc1ncsc1-c1ccc(CNC(=O)[C@@H]2C[C@@H](O)CN2C(=O)[C@@H](NC(=O)CCN2CCN(CCOc3cc(N4[C@@H]5CC[C@H]4CN(c4cc(-c6ccccc6O)nnc4N)C5)ccn3)CC2)C(C)(C)C)cc1 [Compound 232, (2S,4R)-1-((2S)-2-(3-(4-(2-((4-(3-(3-amino-6-(2-hydroxyphenyl)pyridazin-4-yl)-3,8-diazabicyclo[3.2.1]octan-8-yl)pyridin-2-yl)oxy)ethyl)piperazin-1-yl)propanamido)-3,3-dimethylbutanoyl)-4-hydroxy-N-(4-(4-methylthiazol-5-yl)benzyl)pyrrolidine-2-carboxamide]	> 100 nM	> 1000 nM	< 50%	A (“A” indicates maximum degradation ≥75%)		
Nc1nnc(-c2ccccc2O)cc1N1CCN(CCNC(=O)CCCCOc2cccc3c2C(=O)N(C2CCC(=O)NC2=O)C3=O)CC1 (stereo not drawn) [Compound 89, N-(2-[4-[3-amino-6-(2-hydroxyphenyl)pyridazin-4-yl]piperazin-1-yl]ethyl)-5-[[2-(2,6-dioxopiperidin-3-yl)-1,3-dioxoisoindol-4-yl]oxy]pentanamide]	> 1000 nM	> 1000 nM	< 50%	C (“C” indicates maximum degradation <50%)		
Nc1nnc(-c2ccccc2O)cc1OCCc1ccc(CNC(=O)NCCCOc2cccc3c2C(=O)N(C2CCC(=O)NC2=O)C3=O)cc1 (stereo not drawn) [Compound 8, 1-(4-(2-((3-amino-6-(2-hydroxyphenyl)pyridazin-4-yl)oxy)ethyl)benzyl)-3-(3-((2-(2,6-dioxopiperidin-3-yl)-1,3-dioxoisoindolin-4-yl)oxy)propyl)urea]				B (“B” indicates maximum degradation ≥50%)	> 1000 nM	> 1000 nM
Nc1nnc(-c2ccccc2O)cc1N1CCN(CC(=O)NCCCCCCCCNc2cccc3c2C(=O)N(C2CCC(=O)NC2=O)C3=O)CC1 (stereo not drawn) [Compound 95, 2-(4-(3-amino-6-(2-hydroxyphenyl)pyridazin-4-yl)piperazin-1-yl)-N-(8-((2-(2,6-dioxopiperidin-3-yl)-1,3-dioxoisoindolin-4-yl)amino)octyl)acetamide]	> 1000 nM	> 1000 nM	< 50%	C (“C” indicates maximum degradation <50%)		
Cc1ncsc1-c1ccc(CNC(=O)[C@@H]2C[C@@H](O)CN2C(=O)[C@@H](NC(=O)COCCOCCNC(=O)CN2CCN(c3cc(-c4ccccc4O)nnc3N)CC2)C(C)(C)C)cc1 [Compound 100, (2S,4R)-1-[(2S)-2-(2-[2-[2-(2-[4-[3-amino-6-(2-hydroxyphenyl)pyridazin-4-yl]piperazin-1-yl]acetamido)ethoxy]ethoxy]acetamido)-3,3-dimethylbutanoyl]-4-hydroxy-N-[[4-(4-methyl-1,3-thiazol-5-yl)phenyl]methyl]pyrrolidine-2-carboxamide]	> 1000 nM	> 1000 nM	< 50%	C (“C” indicates maximum degradation <50%)		
Nc1nnc(-c2ccccc2O)cc1N1CCN(CC(=O)N2CC(COc3ccc4c(c3)C(=O)N(C3CCC(=O)NC3=O)C4=O)C2)CC1 (stereo not drawn) [Compound 81, 5-((1-(2-(4-(3-amino-6-(2-hydroxyphenyl)pyridazin-4-yl)piperazin-1-yl)acetyl)azetidin-3-yl)methoxy)-2-(2,6-dioxopiperidin-3-yl)isoindoline-1,3-dione]	> 1000 nM	> 1000 nM	< 50%	C (“C” indicates maximum degradation <50%)		
Nc1nnc(-c2ccccc2O)cc1OCCc1ccc(CNC(=O)C2CCN(CCOc3ccc4c(c3)C(=O)N(C3CCC(=O)NC3=O)C4=O)CC2)cc1 (stereo not drawn) [Compound 19, N-(4-(2-((3-amino-6-(2-hydroxyphenyl)pyridazin-4-yl)oxy)ethyl)benzyl)-1-(2-((2-(2,6-dioxopiperidin-3-yl)-1,3-dioxoisoindolin-5-yl)oxy)ethyl)piperidine-4-carboxamide]	> 1000 nM	> 1000 nM	< 50%	C (“C” indicates maximum degradation <50%)		
Nc1nnc(-c2ccccc2O)cc1OCCc1ccc(C(=O)NCCCCCCCCCCCC(=O)NCc2ccc(S(=O)(=O)Nc3cccc4c(Cl)c[nH]c34)cc2)cc1 [Compound 22, 12-[[4-(2-[[3-amino-6-(2-hydroxyphenyl)pyridazin-4-yl]oxy]ethyl)phenyl]formamido]-N-([4-[(3-chloro-1H-indol-7-yl)sulfamoyl]phenyl]methyl)dodecanamide]	> 1000 nM	> 1000 nM	< 50%	C (“C” indicates maximum degradation <50%)		
Nc1nnc(-c2ccccc2O)cc1OCCc1ccc(CNC(=O)CCCCCCCCCCNc2cccc3c2C(=O)N(C2CCC(=O)NC2=O)C3=O)cc1 (stereo not drawn) [Compound 72]	> 1000 nM	> 1000 nM	< 50%	C (“C” indicates maximum degradation <50%)		

Continued, in another order:

DC50 (HiBiT-BRM; [2])	DC50 (HiBit-BRG1; [3])	Dmax (HiBit-BRG1; [4])	Compound	BRM HiBit Degradation Maximum (%) (HiBiT-BRM; [1])	DC50 (HiBiT-BRM; read-out: BRM HiBit Degradation IC50; HeLa cells expressing HiBiT-BRM, 24 h)	DC50 (HiBit-BRG1; read-out: BRG1 HiBit Degradation IC50; HeLa cells expressing HiBit-BRG1 and LgBit, 24 h)
> 1000 nM	> 1000 nM	< 50%	Nc1nnc(-c2ccccc2O)cc1NCCc1ccc(CNC(=O)CCCCOc2cccc3c2C(=O)N(C2CCC(=O)NC2=O)C3=O)cc1 (stereo not drawn) [Compound 147, N-(4-(2-((3-amino-6-(2-hydroxyphenyl)pyridazin-4-yl)amino)ethyl)benzyl)-5-((2-(2,6-dioxopiperidin-3-yl)-1,3-dioxoisoindolin-4-yl)oxy)pentanamide]	C (“C” indicates maximum degradation <50%)		
> 1000 nM	> 1000 nM	< 50%	Cc1ncsc1-c1ccc(CNC(=O)[C@@H]2C[C@@H](O)CN2C(=O)[C@@H](NC(=O)CCN2CCC3(CC2)CCN(C(=O)c2ccc(CCOc4cc(-c5ccccc5O)nnc4N)cc2)CC3)C(C)(C)C)cc1 [Compound 201, (2S,4R)-1-((S)-2-(3-(9-(4-(2-((3-amino-6-(2-hydroxyphenyl)pyridazin-4-yl)oxy)ethyl)benzoyl)-3,9-diazaspiro[5.5]undecan-3-yl)propanamido)-3,3-dimethylbutanoyl)-4-hydroxy-N-(4-(4-methylthiazol-5-yl)benzyl)pyrrolidine-2-carboxamide]	B (“B” indicates maximum degradation ≥50%)		
> 100 nM	> 1000 nM	> 50%	Nc1nnc(-c2ccccc2O)cc1OCCc1ccc(CNCCCOc2cccc3c2C(=O)N(C2CCC(=O)NC2=O)C3=O)cc1 (stereo not drawn) [Compound 122, 4-[3-([[4-(2-[[3-amino-6-(2-hydroxyphenyl)pyridazin-4-yl]oxy]ethyl)phenyl]methyl]amino)propoxy]-2-(2,6-dioxopiperidin-3-yl)isoindole-1,3-dione]	B (“B” indicates maximum degradation ≥50%)		
> 1000 nM	> 1000 nM	< 50%	Cc1ncsc1-c1ccc(CNC(=O)[C@@H]2C[C@@H](O)CN2C(=O)[C@@H](NC(=O)CCN2CC(OC3CCN(C(=O)c4ccc(CCOc5cc(-c6ccccc6O)nnc5N)cc4)CC3)C2)C(C)(C)C)cc1 [Compound 238, (2S,4R)-1-((S)-2-(3-(3-((1-(4-(2-((3-amino-6-(2-hydroxyphenyl)pyridazin-4-yl)oxy)ethyl)benzoyl)piperidin-4-yl)oxy)azetidin-1-yl)propanamido)-3,3-dimethylbutanoyl)-4-hydroxy-N-(4-(4-methylthiazol-5-yl)benzyl)pyrrolidine-2-carboxamide]	C (“C” indicates maximum degradation <50%)		
> 1000 nM	> 1000 nM	< 50%	Cc1ncsc1-c1ccc(CNC(=O)[C@@H]2C[C@@H](O)CN2C(=O)[C@@H](NC(=O)CCN2CC3CN(C(=O)c4ccc(CCOc5cc(-c6ccccc6O)nnc5N)cc4)C3C2)C(C)(C)C)cc1 (stereo partly drawn) [Compound 241, (2S,4R)-1-((2S)-2-(3-(6-(4-(2-((3-amino-6-(2-hydroxyphenyl)pyridazin-4-yl)oxy)ethyl)benzoyl)-3,6-diazabicyclo[3.2.0]heptan-3-yl)propanamido)-3,3-dimethylbutanoyl)-4-hydroxy-N-(4-(4-methylthiazol-5-yl)benzyl)pyrrolidine-2-carboxamide]	C (“C” indicates maximum degradation <50%)		
> 1000 nM	> 1000 nM	< 50%	Cc1ncsc1-c1ccc(CNC(=O)[C@@H]2C[C@@H](O)CN2C(=O)[C@@H](NC(=O)CCN2CC3=C(C2)CN(C(=O)c2ccc(CCOc4cc(-c5ccccc5O)nnc4N)cc2)C3)C(C)(C)C)cc1 [Compound 219, (2S,4R)-1-((S)-2-(3-(5-(4-(2-((3-amino-6-(2-hydroxyphenyl)pyridazin-4-yl)oxy)ethyl)benzoyl)-3,4,5,6-tetrahydropyrrolo[3,4-c]pyrrol-2(1H)-yl)propanamido)-3,3-dimethylbutanoyl)-4-hydroxy-N-(4-(4-methylthiazol-5-yl)benzyl)pyrrolidine-2-carboxamide]	B (“B” indicates maximum degradation ≥50%)		
> 10 nM	> 1000 nM	< 50%	Nc1nnc(-c2ccccc2O)cc1OCCc1ccc(CNCCCC2CN(c3ccc4c(c3)C(=O)N(C3CCC(=O)NC3=O)C4=O)C2)cc1 (stereo not drawn) [Compound 123, 5-[3-[3-([[4-(2-[[3-amino-6-(2-hydroxyphenyl)pyridazin-4-yl]oxy]ethyl)phenyl]methyl]amino)propyl]azetidin-1-yl]-2-(2,6-dioxopiperidin-3-yl)isoindole-1,3-dione]	B (“B” indicates maximum degradation ≥50%)		
